Measured values as given in US11439656B2, “Pharmaceutical compounds and uses thereof” (Regents of the University of Minnesota, priority 2018, dated 2022).

Tests used:
[1] = tested on: p53 tumor suppressor protein; experiment: Western blot of p53 and p21Cip1 induction in SH-SY5Y cells; type: cell-based, human
Description: (§1) Cell culture, cell extract preparation, SDS-PAGE, and western blot: SH-SY5Y pediatric neuroblastoma cells were purchased from ATCC. Pediatric glioblastoma multiforme cell line CHLA-200 was a generous gift from Dr. C. Patrick Reynolds (Texas Tech). Cancer cells were cultured in RPMI-1640 supplemented with 10% fetal bovine serum (FBS) and 1% Penicillin-Streptomycin. Cells were lysed with RIPA lysis buffer (Millipore) containing protease inhibitor cocktails (Roche). The protein concentration was measured by the Lowry method. Equal amounts of protein were subjected to SDS-PAGE and then transferred to a PVDF membrane. The proteins of interest were then probed with their respective antibodies.
(§2) SH-SY5Y cells were treated with 4Ei-10. SH-SY5Y is a neuroblastorna cell line that contains wild-type p53. 4Ei-10 is a small molecule translation inhibitor. It is a prodrug that is converted to N7-chlorophenoxyethyl guanosine monophosphate by the enzyme hHINT1 in the cell as shown in FIG. 1A. N7-chlorophenoxyethyl guanosine monophosphate competes with the cap structure for binding to eIf-4E, preventing the recruitment of the 5′ mRNA cap structure to the eIF-4F complex. […] A time-course study was then performed by treating SH-SY5Y cells with 4Ei-10 at a concentration of 100 μM.
To determine if the increase of the p53 tumor suppressor protein caused by 4Ei-10 is associated with enhanced p53 tumor suppressor protein synthesis, SH-SY5Y cells were treated with 4Ei-10 or 4Ei-10 plus cycloheximide, a protein synthesis (elongation) inhibitor.

SH-SY5Y cells [2] = experiment: Western blot of PARP cleavage (apoptosis) in SH-SY5Y cells; type: cell-based
Description: as §1
Since the p53 tumor suppressor protein is also a stimulator of cell apoptosis, the levels of PARP, a substrate of caspase 3, were examined in SH-SY5Y cells treated with 4Ei-10.

SH-SY5Y cells [3] = experiment: MTT cell viability assay; type: cell-based; conditions: different concentrations of 4Ei-10
Description: MTT cell viability assay: Cells were plated on a 24-well plate at 20,000 cells/well. After treatment with different reagents, the ratio of viable cells in each well was determined using a CellTiter Cell Proliferation kit (Promega) following the manufacturer's instructions. MTS solution was placed in each well at a ratio of 20 μL/100 μL of cell culture medium and incubated in a cell culture incubator for 2-3 hours. Absorbance was then measured at the wavelength of 492 nm with a microplate reader.
as §2

SH-SY5Y cells [4] = experiment: Flow cytometry assay of cell cycle distribution; type: cell-based
Description: Flow Cytometry Assay of Cell Cycle Distribution: Cells were seeded onto six well plates and were grown to sub-confluency. After treatment with or without 4Ei-10, cells were gently removed from the plates, washed once with cold PBS, and fixed with cold 70% ethanol. Cells were then stained with propidium iodide and subjected to flow cytometry (Becton Dickinson FACScalibur). The cell population at each phase was analyzed by the Modfit 2 software.
Since the p53 tumor suppressor protein is known to induce cell cycle arrest through induction of p21Cip1, a cell cycle distribution analysis was performed after treating SH-SY5Y cells with 4Ei-10.

IRES of p53 mRNA = experiment: Dual luciferase assay of p53 IRES activity (pR5UTRF reporter); type: cell-based; conditions: SH-SY5Y cells transfected with pR5UTRF, compared to untreated control cells
Description: Dual luciferase assays: Cells were lysed with passive lysis buffer (Promega). The dual-luciferase reporter assay (Promega) was then performed according to the manufacturer's instructions. Firefly and Renilla luciferase activities were determined with a Synergy 2 (BioTek) microplate reader.
To determine if the IRES activity of p53 mRNA increases during 4Ei-10 treatment when cap-dependent protein translation is halted by 4Ei-10, a bicistronic dual-luciferase reporter vector pR5UTRF, which contains the IRES sequence (−131 nt before 1st AUG of p53 ORF, accession number, NM_00546.4) of the p53 mRNA, was used to transfect SH-SY5Y cells. The IRES activity of p53 mRNA was then measured as the ratio of firefly (Fluc, controlled by the IRES sequence of p53 mRNA) to Renilla luciferase (Rluc) activity, Rluc is controlled by eIF4E and cap-dependent protein translational machinery and was used as an internal control for Fluc.

SH-SY5Y cells [5] = experiment: Cell Death ELISA analysis; type: cell-based; conditions: data not shown
CHLA-200 cells = experiment: Western blot of p53, p21Cip1 and PARP cleavage in CHLA-200 cells; type: cell-based
Description: as §1
The ability of 4Ei-10 to induce the p53 tumor suppressor protein in other type of cell lines was also examined. CHLA-200 is a children's glioblastoma multiforme cell line with wild-type p53. CHLA-200 cells were treated with 100 μM 4Ei-10.

SH-SY5Y cells [6] = experiment: Indirect immunofluorescence of phosphorylated H2A.X foci (DNA double strand breaks); type: cell-based; conditions: nucleus
Description: Indirect immunofluorescence: Chamber slides (8 wells, Lab-Tek) were treated with Poly-L-Lysine (Sigma) prior to seeding with SH-SY5Y cells at 8000 cells/well. Sub-confluent cells were treated with different reagents. After treatment, cells were briefly fixed in 3% paraformaldehyde solution and were then permeablized with 0.2% Triton X-100 in Tris-buffered saline. After permeabilization, cells were incubated with a phosphor-Histone H2A.X antibody (Millipore) and then with a Texas-Red conjugated secondary antibody (Jackson Laboratories) followed by DAPI staining. Images were recorded using a Nikon Eclipse TE2000-E confocal microscope at 60× magnification.
Foci formation of phosphorylated H2A.X, which recognizes DNA double strand breaks, was examined.

eIF4E and eIF4G = molecular target: T1, eIF4E and eIF4G (Homo sapiens, UniProt P06730); experiment: m7-GTP Sepharose bead pull-down of eIF4E and eIF4G; type: cell-based; conditions: SH-SY5Y cells, 100 μM, 24 hours
T1 construct: endogenous in cells; host or cells: SH-SY5Y
Description: SH-SY5Y cells were treated with 100 μM 4Ei-10 for 24 hours. After treatment, cells were lysed and equal amounts of proteins were incubated with m^7-GTP Sepharose beads. After incubation, beads were washed and mixed with SDS-PAGE loading buffer. The eluted proteins were then subjected to SDS-PAGE and transferred to a PVDF membrane. Bound eIF4G and eIF-4E were then detected with total eIF4E and total β-actin as input controls.

MCF-7 cells = experiment: Western blot of p53 and PARP cleavage in MCF-7 cells; type: cell-based; conditions: 4Ei-10 alone
Description: Sub-confluent MCF-7 cells were treated with either 100 μM 4Ei-10, 50 μM 4EGI-1, or both for 24 hours. After treatment, both floating and attached cells were collected and lysed. Equal amounts of protein were subjected to SDS-PAGE and transferred to a PVDF membrane. p53, PARP, cleaved PARP, and β-actin were detected with their respective antibodies.

[7] = tested on: cell lines of mantle cell lymphoma (MCL); conditions: cited from earlier work

T1 sequence (P06730 2-217 limits assumed): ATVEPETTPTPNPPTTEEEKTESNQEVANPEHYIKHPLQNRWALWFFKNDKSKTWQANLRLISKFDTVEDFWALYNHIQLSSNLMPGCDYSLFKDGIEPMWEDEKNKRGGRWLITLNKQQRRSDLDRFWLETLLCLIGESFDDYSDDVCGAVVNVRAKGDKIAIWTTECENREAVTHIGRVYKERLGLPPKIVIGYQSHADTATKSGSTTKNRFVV

## O=C(O)C(Cc1ccccc1[N+](=O)[O-])=NNc1nc(-c2ccc(Cl)c(Cl)c2)cs1 (mixture of isomers) [4EGI-1, reference compound]
[1]
  induction of the p53 tumor suppressor protein, comparison of single agents and combination: stronger ability
SH-SY5Y cells [2]
  induction of cellular apoptosis, comparison of single agents and combination: stronger ability

## CSCCOP(=O)(NCCc1c[nH]c2ccccc12)OC[C@H]1O[C@@H](n2c[n+](CCOc3ccc(Cl)cc3)c3c(=O)[nH]c(N)nc32)C(O)C1O (stereo partly drawn) [4Ei-10]
SH-SY5Y cells [3]
  cell viability or cell proliferation: decrease in cell viability or cell proliferation in a concentration-dependent manner
[1]; 100 μM, time-course
  expression of p53 downstream target p21Cip1: increased expression
  p53 tumor suppressor protein accumulation: induced p53 tumor suppressor protein accumulation
[1]; protein synthesis inhibitor experiment
  p53 tumor suppressor protein accumulation with or without cycloheximide: induction of the p53 tumor suppressor protein
SH-SY5Y cells [4]
  cell numbers at the G1 phase: substantial increase
  cell numbers at the S phase: dramatic decrease
SH-SY5Y cells [4]; compared to control cells
  G1S ratio, an indicator of G1 cell cycle arrest: two-fold increase
IRES of p53 mRNA
  IRES activity of p53 mRNA (ratio of Fluc/Rluc): significantly increased
SH-SY5Y cells [2]; 100 μM
  cleaved PARP (cellular apoptosis): increase of cleaved PARP
  strength of apoptosis induced: relatively weak
SH-SY5Y cells [2]; 100 μM, prolonged treatment
  treatment time after which apoptosis could be seen: ≥ 24 h
SH-SY5Y cells [5]
  cell death or apoptosis: enhanced cell death or apoptosis
CHLA-200 cells; CHLA200 cells
  cell apoptosis: increased cell apoptosis
  induction of the p53 tumor suppressor protein: Induction of the p53 tumor suppressor protein was observed
CHLA-200 cells; CHLA-200 cells, 100 μM
  PARP cleavage (apoptosis): induced
  p21Cip1 induction (cell cycle arrest): induced
SH-SY5Y cells [6]
  foci formation of phosphorylated H2A.X (DNA double strand breaks): not seen
eIF4E and eIF4G
  eIF4E bound to the m7-GTP Sepharose beads: decreased
  eIF4G bound to the m7-GTP Sepharose beads: decreased
MCF-7 cells
  cell apoptosis: increased cell apoptosis
  induction of the p53 tumor suppressor protein: Induction of the p53 tumor suppressor protein was observed
[7]
  c-Myc expression: suppression of c-Myc expression
  expression of p27: induce the expression of p27
[7]; multiple cell lines of mantle cell lymphoma
  cell proliferation and cell survival: inhibits cell proliferation and cell survival
[7]; to doxorubicin, dexamethasone, and ibrutinib
  chemosensitization: enhanced chemosensitization
